Data on two compounds can be found in patent publication US8362070B2, “Application of puerarin in the preparation of P2X3 mediated drugs for pain/nervous system diseases” (Nanchang University, priority 2009, dated 2013).

The target of assay [1] is T1, P2X3 receptor (Rattus norvegicus, UniProt P49654).
T1 construct: The method for neuron sample isolated from DRG of rats was briefly described as below; endogenous in cells; host or cells: acutely dissociated L4/L5 DRG neurons of SD rats
T1 sequence (P49654 1-397): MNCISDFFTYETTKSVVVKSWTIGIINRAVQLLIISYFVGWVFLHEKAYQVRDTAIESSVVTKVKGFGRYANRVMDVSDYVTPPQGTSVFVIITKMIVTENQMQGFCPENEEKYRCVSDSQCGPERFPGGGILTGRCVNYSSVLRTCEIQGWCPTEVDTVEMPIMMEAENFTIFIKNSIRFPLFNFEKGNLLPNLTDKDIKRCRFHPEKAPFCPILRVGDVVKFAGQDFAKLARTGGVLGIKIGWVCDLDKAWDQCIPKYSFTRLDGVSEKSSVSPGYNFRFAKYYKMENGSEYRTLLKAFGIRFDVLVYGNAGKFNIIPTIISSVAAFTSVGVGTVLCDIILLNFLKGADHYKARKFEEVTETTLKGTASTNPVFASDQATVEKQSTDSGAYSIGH
Briefly: Whole-cell patch clamp of ATP or α,β-meATP activated current in DRG neurons of CCI rats. The format is cell-based. The note with it: for DRG neurons sensitive to exogenous ATP: ATP 1-1000 μmol/L; for α,β-meATP-activated electric current in DRG neurons: α,β-meATP 10 μmol/L. An excerpt: The method for neuron sample isolated from DRG of rats was briefly described as below: the rats were knocked down and their skin in the back was cut open rapidly after decollation. The ribs that were connected to the spinal column at both sides were cut apart and the thoracolumbar spine was taken out and cut in half through the middle of the spine. The samples were kept in O2 saturated DMEM solution (Dubecco's Modified Eagle's medium), pH 7.40, and the osmotic pressure of this solution was 340 mOsm/kg. The sections L4 and L5 of nerve ganglion and connected nerve roots (dorsal nerve roots and ventral roots) as well as the spinal nerves were taken out inside the open vertebral canal, the connected nerves and adjacent connective tissue capsule were carefully removed by using fine corneal scissors and hairspring tweezer under an anatomical microscope, and the cleaned DRG should be cut into small pieces as far as possible and transferred to a culture flask, trypsin (type III, sigma) 0.5 g/L and collagenase (type IA, sigma) 1.0 g/L was then added, and the culture flask was incubated in a constant temperature shaking water bath (35 °C, 80 times/min) for 20-30 minutes, then proper amount of Soya beam trypsin inhibitor (type […]-s, Sigma) was added to stop the enzymatic digestion. The DRG cells after the above mentioned enzymatic and mechanical isolation were transferred to 35 mm culture dishes, and then they were kept still on the object stage of an inverted microscope for solution change for 30 minutes, subsequently the whole-cell patch clamp technique was utilized to record the effects of puerarin on ATP or α,β-meATP activated electric current. • (1) Carefully examining the connection and original setting of equipments in the experimental system. • (2) Turning on the power switch. • (3) Electrode installation: connecting the reference electrode, filling the glass electrode and then installing it on the electrode clamp holder. Notice: the electrode should not be over-filled; contacting the shielding can with hands before installing the electrodes in order to release the static electricity on the body. • (4) Phase boundary potential compensation and electrode resistance determination: filling solution in the microelectrode under the “searching” mode, adjusting the phase boundary potential compensation and measuring electrode resistance according to the responsive amplitude of electric current that was induced by pulsed voltage square wave. • (5) Cell sealing: adjusting the micro-operator to get the tip of the microelectrode close to the surface of the cell and a negative pressure is produced in the micro-electrode and thus the Giga-Ohm seal was formed. • (6) Rapid electric capacity compensation: adjusting the rapid electric capacity compensation and making the output signal free of ingredients of rapid electric capacitive current. • (7) Absorbing the cell membrane until it was disrupted: the working mode was switched to “forcipressure”. The membrane was absorbed until it was disrupted after the high resistance sealing was formed between the electrode and the cell (1-10 GΩ). The holding potential (H.P) was kept at −60 mV, and low pass membrane current was used (1 kHz, −3 dB). • (8) Slow capacitive compensation: adjusting the slow capacitive compensation and making the output signal free of ingredients of slow electric capacitive current. Tandem resistance compensation: adjusting the tandem resistance compensation until no shock was produced. The equipment for record of patch clamp was CEZ-2400 type patch clamp amplifier (Nihon-Kohden, Japan). The membrane was further absorbed until it was disrupted after the high resistance formed between the electrode and the cell membrane (1˜10 GΩ), and the capacitance and the tandem resistance compensation were adjusted. The holding potential (HP) was kept at −60 mV, low pass membrane current was used (1 kHz, −3 dB). The experimental results were traced by using the two-way recorder (LMS-2B, Chengdu). […]

The test system of assay [2] is P2X3 mRNA. Briefly: RT-PCR of P2X3 mRNA expression in dorsal root ganglion of burn rats. In kind it is in vivo, rat. Conditions: n=3. The procedure: SD rats (their body weights were between 200±20 g) were randomly divided into the group I (sham back burn), the group II (Puerarin, intraperitoneal injection), the group III (superficial second degree back burn), the group IV (superficial second degree back burn+puerarin), the group V (control) and the group VI (superficial second degree back burn+Indocin). The rats in the group IV (superficial second degree back burn+puerarin) were subjected to intraperitoneal injection of puerarin (100 mg/kg) 30 minutes before burn and after burn everyday for continuous three days. The rats in the group VI (superficial second degree back burn+Indocin) were subjected to intraperitoneal injection of idomethine (4 mg/kg/d) 30 minutes before burn and after burn everyday for continuous three days. Primer design: β-actin was selected as the internal reference and the sequences for the primers were as below: Gel image system was used to record the scanned values for spot density (average optical density) of target electrophoresis bands, and the ratio between P2X3 band and corresponding β-actin band was used as the relative amount of P2X3 mRNA expression.

The mark [3] stands for this setting: superficial second degree back burn + drug (puerarin 100 mg/kg i.p., idomethine 4 mg/kg/d i.p., three days), burn 1.04±0.03, control 0.91±0.03.

For the compound `COc1ccc2c(c1)c(CC(=O)O)c(C)n2C(=O)c1ccc(Cl)cc1` [Indocin, Indometacin], in assay [1] (CCI rats + Indocin, p<0.05), the “ATP-activated electric current in DRG neurons in comparison to CCI group” value is given as “decreased”. Moreover, in assay [1] (CCI rats + drug), the “DRG neurons sensitive to exogenous ATP” value came to 89.7% and the “α,β-meATP-activated electric current in DRG neurons” value is given as “extremely low inward current”. Moreover, the “relative expression amount of P2X3 mRNA (after normalization with corresponding β-actin), RT-PCR” value in assay [2] (setting [3]) is 0.97±0.02.
Take `O=c1c(-c2ccc(O)cc2)coc2c([C@@H]3O[C@H](CO)[C@@H](O)[C@H](O)[C@H]3O)c(O)ccc12` [puerarin]: the “DRG neurons sensitive to exogenous ATP” value is listed as 87.5% in assay [1] (CCI rats + drug) and 89.2% in assay [1] (puerarin alone, no CCI). Further, the “α,β-meATP-activated electric current in DRG neurons” value is “extremely low inward current” in assay [1] (CCI rats + drug) and “extremely low inward current” in assay [1] (puerarin alone, no CCI). The “ATP-activated electric current in DRG neurons in comparison to the idomethine treatment group” value in assay [1] (CCI rats + puerarin, p<0.05) was “lower”. Moreover, the “ATP-activated electric current in DRG neurons, difference from groups I, II and V” value in assay [1] (CCI rats + puerarin, p>0.05) is “not significant”. The “relative expression amount of P2X3 mRNA (after normalization with corresponding β-actin), RT-PCR” value is 0.89±0.02 in assay [2] (puerarin alone i.p., no burn) and 0.90±0.02 in assay [2] (setting [3]).
